Assay [1] has as its target T1, GLP-1R (Homo sapiens, UniProt P43220). In words: PathHunter β-arrestin assay. The note with it: PathHunter β-arrestin assay; read-out: β-arrestin activity EC50. It counts as cell-based. The procedure, abridged: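 Following a 90 min agonist exposure at 37 °C in 0.2% BSA medium, β-arrestin coupling was detected by chemiluminescence after 3 h at room temperature.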
The target in assay [2] is T1, GLP-1R. In words: HitHunter cAMP assay (GLP-1R). The assay is classed as cell-based. Conditions: cAMP; for Emax: read-out: (Emax) GLP-1R; for EC50: read-out: EC50 GLP-1R/nM. The procedure, abridged: (§1)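 Duplicate 22-point, 2-fold agonist titrations applied to receptor-expressing suspension cells in IBMX-containing HBSS; 30 min RT stimulation. Read: luminescent cAMP immunocompetition after O/N dark incubation.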
For orientation: cAMP levels reflect the balance of adenylyl cyclase and phosphodiesterase activity.

The next assay has as its system mice. The assay is described as follows: Glucose tolerance test (GTT). The assay is classed as in vivo, mouse. The note with it: 24 h GTT, s.c., dose range 2-5 nmol/kg, percent of vehicle. The procedure, abridged: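 Compounds diluted in PBS from 1 mM DMSO stocks and given subcutaneously 15 min (5-6 h fast), 4 h (16 h overnight fast), 16 h or 24 h before intraperitoneal glucose (2 g/kg). Tail blood glucose read at 10–120 min post-glucose, at least 6 mice per time-point. Glucose AUC over time determined.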

The target in the next assay is T2, GIP-R (Homo sapiens, UniProt P48546).
T2 sequence (P48546 22-466): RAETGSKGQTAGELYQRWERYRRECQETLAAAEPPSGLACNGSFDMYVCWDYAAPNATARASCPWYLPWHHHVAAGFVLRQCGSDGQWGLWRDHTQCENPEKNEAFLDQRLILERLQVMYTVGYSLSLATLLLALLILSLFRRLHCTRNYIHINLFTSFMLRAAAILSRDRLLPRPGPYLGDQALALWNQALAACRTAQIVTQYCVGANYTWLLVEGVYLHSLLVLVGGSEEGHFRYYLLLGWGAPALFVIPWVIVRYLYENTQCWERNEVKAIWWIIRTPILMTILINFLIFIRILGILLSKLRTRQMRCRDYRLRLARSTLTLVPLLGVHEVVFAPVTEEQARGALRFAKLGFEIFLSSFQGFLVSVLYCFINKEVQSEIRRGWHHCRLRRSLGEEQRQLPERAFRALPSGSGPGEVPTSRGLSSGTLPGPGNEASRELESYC
In words: HitHunter cAMP assay (GIP-R). The note with it: cAMP; for Emax: read-out: (Emax) GIP-R; for EC50: read-out: EC50 GIP-R/nM. It counts as cell-based. The procedure, abridged:
as §1

Structures are written as SMILES. Where two headings read alike, the source gives them in different places.

Usually Emax stands for the maximal effect, on the per cent scale that the assay sets.

T1 sequence (P43220 24-463): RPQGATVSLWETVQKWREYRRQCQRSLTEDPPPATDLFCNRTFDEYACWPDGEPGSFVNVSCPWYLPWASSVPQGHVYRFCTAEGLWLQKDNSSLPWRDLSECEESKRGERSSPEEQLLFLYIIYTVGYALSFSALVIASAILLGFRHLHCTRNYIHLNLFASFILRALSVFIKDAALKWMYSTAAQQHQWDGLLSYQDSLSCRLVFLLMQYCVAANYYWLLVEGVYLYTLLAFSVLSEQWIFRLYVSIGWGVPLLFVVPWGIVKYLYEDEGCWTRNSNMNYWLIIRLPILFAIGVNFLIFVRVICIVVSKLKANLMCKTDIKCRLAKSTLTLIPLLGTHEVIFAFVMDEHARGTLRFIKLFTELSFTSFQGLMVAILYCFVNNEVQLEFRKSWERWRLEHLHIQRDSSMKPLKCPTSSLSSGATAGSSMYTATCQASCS

For the compound `CCCCCCCCCCCCCCCC(=O)N[C@@H](CCC(=O)NCCCC[C@H](NC(=O)[C@H](CO)NC(=O)[C@@H]1CCCN1C(=O)[C@@H]1CCCN1C(=O)[C@@H]1CCCN1C(=O)[C@H](C)NC(=O)CNC(=O)[C@H](CO)NC(=O)[C@H](CO)NC(=O)[C@@H]1CCCN1C(=O)CNC(=O)CNC(=O)[C@H](C)NC(=O)[C@H](CC(C)C)NC(=O)[C@H](CC(C)C)NC(=O)[C@H](Cc1c[nH]c2ccccc12)NC(=O)[C@H](CC(N)=O)NC(=O)[C@@H](NC(=O)[C@H](Cc1ccccc1)NC(=O)[C@H](CCC(=O)O)NC(=O)C(C)(C)NC(=O)[C@H](C)NC(=O)[C@H](C)NC(=O)[C@H](CCC(N)=O)NC(=O)[C@H](CCCCN)NC(=O)[C@H](CC(=O)O)NC(=O)[C@H](CC(C)C)NC(=O)[C@H](Cc1ccc(O)cc1)NC(=O)[C@@H](NC(=O)[C@H](CO)NC(=O)[C@H](Cc1ccc(O)cc1)NC(=O)[C@H](CC(=O)O)NC(=O)[C@H](CO)NC(=O)[C@@H](NC(=O)[C@H](Cc1ccccc1)NC(=O)[C@@H](NC(=O)CNC(=O)[C@H](CCC(=O)O)NC(=O)CNC(=O)CN1CCCCC1=O)[C@@H](C)O)[C@@H](C)O)[C@@H](C)CC)C(C)C)C(N)=O)C(=O)O` [Compound 2], the EC50 on GLP-1R [1] is > 1000 nM; at GLP-1R [2] (Table 3), < 0.1 nM; at GLP-1R [2] (Table 3A), < 0.1 nM; at GIP-R (Table 3) it was 1 to 10 nM; at GIP-R (Table 3A) it was 1 to 10 nM. Moreover, the Emax at GLP-1R [2] (Table 3) turned out to be 99%; on GLP-1R [2] (Table 3A), 99%; on GIP-R (Table 3), 46%; at GIP-R (Table 3A), 46%. Besides, in the assay with mice, the AUC score was 2 (AUC score 2 = 26-50%).

With `CCCCCCCCCCCCCCCC(=O)N[C@@H](CCC(=O)NCCCC[C@H](NC(=O)[C@H](CO)NC(=O)[C@@H]1CCCN1C(=O)[C@@H]1CCCN1C(=O)[C@@H]1CCCN1C(=O)[C@H](C)NC(=O)CNC(=O)[C@H](CO)NC(=O)[C@H](CO)NC(=O)[C@@H]1CCCN1C(=O)CNC(=O)CNC(=O)[C@H](C)NC(=O)[C@H](CC(C)C)NC(=O)[C@H](CC(C)C)NC(=O)[C@H](Cc1c[nH]c2ccccc12)NC(=O)[C@H](CC(N)=O)NC(=O)[C@@H](NC(=O)[C@H](Cc1ccccc1)NC(=O)[C@H](CCC(=O)O)NC(=O)C(C)(C)NC(=O)[C@H](C)NC(=O)[C@H](C)NC(=O)[C@H](CCC(N)=O)NC(=O)[C@H](CCCCN)NC(=O)[C@H](CC(=O)O)NC(=O)[C@H](CC(C)C)NC(=O)[C@H](Cc1ccc(O)cc1)NC(=O)[C@@H](NC(=O)[C@H](CO)NC(=O)[C@H](Cc1ccc(O)cc1)NC(=O)[C@H](CC(=O)O)NC(=O)[C@H](CO)NC(=O)[C@@H](NC(=O)[C@H](Cc1ccccc1)NC(=O)[C@@H](NC(=O)CNC(=O)[C@H](CCC(=O)O)NC(=O)CSCC(=O)NCCN1CC[C@H](O)C1=O)[C@@H](C)O)[C@@H](C)O)[C@@H](C)CC)C(C)C)C(N)=O)C(=O)O` [Compound 66], the EC50 is > 1000 nM on GLP-1R [1]; < 0.1 nM at GLP-1R [2] (Table 3); < 0.1 nM at GLP-1R [2] (Table 3A); 1 to 10 nM at GIP-R (Table 3); 100 to 1000 nM on GIP-R (Table 3A). The maximum response (Emax) on GLP-1R [2] (Table 3) worked out at 113%; on GLP-1R [2] (Table 3A), 113%; at GIP-R (Table 3), 11%; on GIP-R (Table 3A) it was 11%. The AUC score with mice is on record as 2 (AUC score 2 = 26-50%).

In the case of `CCCCCCCCCCCCCCCC(=O)N[C@@H](CCC(=O)NCCCC[C@H](NC(=O)[C@H](CO)NC(=O)[C@@H]1CCCN1C(=O)[C@@H]1CCCN1C(=O)[C@@H]1CCCN1C(=O)[C@H](C)NC(=O)CNC(=O)[C@H](CO)NC(=O)[C@H](CO)NC(=O)[C@@H]1CCCN1C(=O)CNC(=O)CNC(=O)[C@H](C)NC(=O)[C@H](CC(C)C)NC(=O)[C@H](CC(C)C)NC(=O)[C@H](Cc1c[nH]c2ccccc12)NC(=O)[C@H](CC(N)=O)NC(=O)[C@@H](NC(=O)[C@H](Cc1ccccc1)NC(=O)[C@H](CCC(=O)O)NC(=O)C(C)(C)NC(=O)[C@H](C)NC(=O)[C@H](C)NC(=O)[C@H](CCC(N)=O)NC(=O)[C@H](CCCCN)NC(=O)[C@H](CC(=O)O)NC(=O)[C@H](CC(C)C)NC(=O)[C@H](Cc1ccc(O)cc1)NC(=O)[C@@H](NC(=O)[C@H](CO)NC(=O)[C@H](Cc1ccc(O)cc1)NC(=O)[C@H](CC(=O)O)NC(=O)[C@H](CO)NC(=O)[C@@H](NC(=O)[C@H](Cc1ccccc1)NC(=O)[C@@H](NC(=O)CNC(=O)[C@H](CCC(=O)O)NC(=O)CSCC(=O)NCCN1CCOCC1=O)[C@@H](C)O)[C@@H](C)O)[C@@H](C)CC)C(C)C)C(N)=O)C(=O)O` [Compound 32], the EC50 at GLP-1R [1] is > 1000 nM; on GLP-1R [2] (Table 3), < 0.1 nM; at GLP-1R [2] (Table 3A), < 0.1 nM; at GIP-R (Table 3), 1 to 10 nM; on GIP-R (Table 3A), 1 to 10 nM. The Emax turned out to be 103% on GLP-1R [2] (Table 3), 103% on GLP-1R [2] (Table 3A), 65% at GIP-R (Table 3) and 65% at GIP-R (Table 3A). For the same compound, in the assay on mice, the AUC score is listed as 2 (AUC score 2 = 26-50%).

As to `CCCCCCCCCCCCCCCC(=O)N[C@@H](CCC(=O)NCCCC[C@H](NC(=O)[C@H](CO)NC(=O)[C@@H]1CCCN1C(=O)[C@@H]1CCCN1C(=O)[C@@H]1CCCN1C(=O)[C@H](C)NC(=O)CNC(=O)[C@H](CO)NC(=O)[C@H](CO)NC(=O)[C@@H]1CCCN1C(=O)CNC(=O)CNC(=O)[C@H](C)NC(=O)[C@H](CC(C)C)NC(=O)[C@H](CC(C)C)NC(=O)[C@H](Cc1c[nH]c2ccccc12)NC(=O)[C@H](CC(N)=O)NC(=O)[C@@H](NC(=O)[C@H](Cc1ccccc1)NC(=O)[C@H](CCC(=O)O)NC(=O)C(C)(C)NC(=O)[C@H](C)NC(=O)[C@H](C)NC(=O)[C@H](CCC(N)=O)NC(=O)[C@H](CCCCN)NC(=O)[C@H](CC(=O)O)NC(=O)[C@H](CC(C)C)NC(=O)[C@H](Cc1ccc(O)cc1)NC(=O)[C@@H](NC(=O)[C@H](CO)NC(=O)[C@H](Cc1ccc(O)cc1)NC(=O)[C@H](CC(=O)O)NC(=O)[C@H](CO)NC(=O)[C@@H](NC(=O)[C@H](Cc1ccccc1)NC(=O)[C@@H](NC(=O)CNC(=O)[C@H](CCC(=O)O)NC(=O)CCNC(=O)Cn1ccccc1=O)[C@@H](C)O)[C@@H](C)O)[C@@H](C)CC)C(C)C)C(N)=O)C(=O)O` [Compound 234], the EC50 at GLP-1R [1] is > 1000 nM; on GLP-1R [2] (Table 3A) it was 0.1 to 1 nM; at GIP-R (Table 3A), 1 to 10 nM. Also, the maximal response (Emax) at GLP-1R [2] (Table 3A) amounted to 97%; at GIP-R (Table 3A) it was 76%. Moreover, in the assay with mice, the AUC score is 3 (AUC score 3 = 51-75%).
